Experimental data from PMC12015242, “A universal cannabinoid CB1 and CB2 receptor TR-FRET kinetic ligand-binding assay” (Frontiers in Pharmacology, 2025).
Where two headings read alike, the source gives them in different places.

Key:
[1] = molecular target: T1, human CB1R (SNAP-CB1R91–472) (Homo sapiens, UniProt P21554); assay: biochemical; format: binding
T1 construct: SNAP-tagged human CB1R or CB2R (SNAP-CB1R91–472 and SNAP-CB2); 5HT3A signal peptide (N, cleaved yes); expressed in transfected cells; membranes
T1 sequence (P21554 91-472): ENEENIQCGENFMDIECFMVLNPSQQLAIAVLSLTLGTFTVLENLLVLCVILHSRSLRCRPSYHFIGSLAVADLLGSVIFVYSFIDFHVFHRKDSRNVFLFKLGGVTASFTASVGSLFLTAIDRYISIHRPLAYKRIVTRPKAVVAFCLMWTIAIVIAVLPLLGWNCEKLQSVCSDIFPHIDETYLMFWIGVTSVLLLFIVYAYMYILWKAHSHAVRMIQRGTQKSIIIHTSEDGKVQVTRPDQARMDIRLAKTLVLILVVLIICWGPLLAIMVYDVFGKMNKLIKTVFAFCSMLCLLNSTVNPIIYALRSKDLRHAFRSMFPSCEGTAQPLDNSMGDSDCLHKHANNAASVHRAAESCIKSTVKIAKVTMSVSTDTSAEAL

human CB2R (SNAP-CB2) [2] = molecular target: T2, human CB2R (SNAP-CB2) (Homo sapiens, UniProt P34972); format: binding
T2 construct: truncated CB1R (CB1R91-472) and full-length CB2R (CB2R1–360); 5HT3A signal peptide (N, cleaved yes); expressed in transfected cells; membranes
T2 sequence (P34972 whole entry, the tested form may be a part): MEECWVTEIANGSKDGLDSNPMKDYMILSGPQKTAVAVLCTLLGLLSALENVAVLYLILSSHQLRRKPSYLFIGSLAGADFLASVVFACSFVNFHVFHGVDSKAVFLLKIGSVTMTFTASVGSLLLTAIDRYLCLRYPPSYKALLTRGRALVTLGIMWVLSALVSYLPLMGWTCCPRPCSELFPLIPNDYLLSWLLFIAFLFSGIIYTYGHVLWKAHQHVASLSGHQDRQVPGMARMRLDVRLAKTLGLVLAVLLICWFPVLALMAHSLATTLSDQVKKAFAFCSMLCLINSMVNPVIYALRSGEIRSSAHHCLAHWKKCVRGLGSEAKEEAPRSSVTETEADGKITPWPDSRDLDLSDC

CB2R = settings: 25°C, radioligand kinetic binding assay, ref Martella et al., 2017; cited from earlier work
[3] = molecular target: T1, human CB1R (SNAP-CB1R91–472); assay: Fluorescent ligand kinetic association binding, TR-FRET; settings: 25°C; for time required for equilibrium: 15 min data collection period
Procedure: (§1) Experiments were performed using T-REx™-293 cell membranes expressing SNAP-tagged human CB1R or CB2R (SNAP-CB1R91–472 and SNAP-CB2). All the assays were conducted at either 25°C or 37°C in white 384-well OptiPlate plates (PerkinElmer) using the PHERAstar FSX microplate reader (BMG Labtech). The TRF 337/620/520 optic module was used for all assays, except for tracer MKA-136, where the TRF 337/570/490 module was utilized. Each well was excited with four laser flashes, and signal detection was performed with a 100-μs delay, integrating the signal over 700 μs.
(§2) Assay buffer comprised HBSS (Hanks’ Balanced Salt Solution) containing 5 mM HEPES, 0.5% BSA, and 0.02% Pluronic F-127 at pH 7.4. BSA (0.5%) and 0.02% Pluronic F-127 were used to minimize the non-specific binding of hydrophobic compounds to plasticware. Membranes were preincubated with 100 μM of GppNHp at 25 or 37°C for 15 min prior to addition to the plate using automatic injectors to ensure early time points could be measured with accuracy. GppNHp is a non-hydrolyzable GTP analog that will bind to G proteins and promote the dissociation of G proteins from the receptor. This way, we promote a single population of receptors (uncoupled from G proteins) avoiding a mixed population (i.e., uncoupled receptors (R) and receptors coupled to GDP bound G proteins, or G proteins alone (RG)). Adding GTP analogs is a common strategy used in GPCR binding studies to ensure a homogeneous single-state receptor population and simplify the analysis.
(§3) To control for potential plate position effects, plate layouts were varied between independent experiments. […] D77 stock was prepared at 100x the final concentration, and 0.4 μL was added to the wells. DMSO was held constant at 2% for all assay points, including the saturation and competition binding experiments, as reflected in the text.
(§4) Fluorescent ligand binding to CB1R and CB2R was assessed via HTRF detection, allowing the construction of association binding curves. For fluorescent ligand characterization, six increasing concentrations of fluorescent ligands were prepared, and cell membranes containing human CB1R or CB2R (1 μg/well) were added (at t = 0) in a total volume of 40 μL containing 2% DMSO at 25 or 37°C, with gentle agitation. […] As the wells are read sequentially, we restricted the readout of kinetic data of two ligands per experimental run to reduce the minimum reading cycle time.
(§5) D77 association data were fitted to a global fitting model using GraphPad Prism 9.2 to simultaneously calculate k on and k off using the following equation, where k obs equals the observed rate of association and L is the concentration of D77: kobs=L⋅kon+koff (3)

human CB2R (SNAP-CB2) [4] = molecular target: T2, human CB2R (SNAP-CB2); assay: as above; settings: 25°C; for time required for equilibrium: 15 min data collection period
Procedure: as §1, §2, §3, §4, §5

[5] = molecular target: T1, human CB1R (SNAP-CB1R91–472); assay: biochemical; format: binding; remark: listed apart in the source
full length CB1R WT = molecular target: T3, full length CB1R WT (Homo sapiens, UniProt P21554); format: cell-based
T3 construct: 5HT3A signal peptide (N, cleaved yes); expressed in transfected cells; host or cells: T-REx-293 cells, tetracycline-induced, co-expressing the Gi-CASE biosensor
T3 sequence (P21554 whole entry): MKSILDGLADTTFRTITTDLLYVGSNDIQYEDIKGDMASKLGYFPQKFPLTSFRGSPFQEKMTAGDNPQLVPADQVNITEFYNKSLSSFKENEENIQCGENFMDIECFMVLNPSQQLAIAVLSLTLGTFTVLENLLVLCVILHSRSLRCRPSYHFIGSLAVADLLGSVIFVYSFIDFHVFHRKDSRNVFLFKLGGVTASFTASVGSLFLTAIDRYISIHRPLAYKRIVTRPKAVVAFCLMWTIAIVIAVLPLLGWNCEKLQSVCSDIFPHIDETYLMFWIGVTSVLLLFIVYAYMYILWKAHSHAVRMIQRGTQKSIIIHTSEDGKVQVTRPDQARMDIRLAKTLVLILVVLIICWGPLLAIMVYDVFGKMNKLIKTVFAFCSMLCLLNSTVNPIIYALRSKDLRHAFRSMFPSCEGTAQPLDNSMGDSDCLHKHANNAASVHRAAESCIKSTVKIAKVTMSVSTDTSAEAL

truncated CB1R91-472 = molecular target: T4, truncated CB1R91-472 (Homo sapiens, UniProt P21554); format: cell-based
T4 construct: 5HT3A signal peptide (N, cleaved yes); expressed in transfected cells; host or cells: T-REx-293 cells, tetracycline-induced, co-expressing the Gi-CASE biosensor
T4 sequence (P21554 91-472): as the sequence (P21554 91-472) above

human CB2R (SNAP-CB2) [6] = molecular target: T2, human CB2R (SNAP-CB2); format: binding; settings: 37°C, D77 900 nM, 15-min incubation

Compound: SR 144528
- k off [1]: 0.0832 ± 0.0122 s⁻¹
- koff [1]: 0.0387 ± 0.00333 s⁻¹
- Residence time (Rt) (s) (human CB2R (SNAP-CB2) [2]; 25°C): 379 ± 27 s
- koff (human CB2R (SNAP-CB2) [2]; 25°C): 0.00267 ± 0.00017 s⁻¹
- Residence time (Rt) (min) (human CB2R (SNAP-CB2) [2]; 25°C, listed as SR 144,528): 6.3 min
- Residence time (Rt) (min) (human CB2R (SNAP-CB2) [2]; 25°C, listed as SR-144528): 6.32 ± 0.45 min
- k off (human CB2R (SNAP-CB2) [2]; 37°C): 0.0115 ± 0.0005 s⁻¹
- k on (human CB2R (SNAP-CB2) [2]; 37°C): (2.47 ± 0.16) × 10^8 M^−1 min^−1
- k on (text, shared exponent) (human CB2R (SNAP-CB2) [2]; 37°C): 4.17e+06 M⁻¹ s⁻¹
- Residence time (Rt) (min) (human CB2R (SNAP-CB2) [2]; 37°C, Rt = 1/k off): 1.46 ± 0.07 min
- Residence time (Rt) (s) (human CB2R (SNAP-CB2) [2]; 37°C, Rt = 1/k off): 87 ± 4 s
- residence time (CB2R): 8.7 min

Compound: CCOC(=O)C(CC)(CCCSCCOCCOCCOCCOCCNc1ccc([N+](=O)[O-])c2nonc12)NC(=O)c1ccc(C2CC2)c(Cc2ccc(F)cc2)n1 (stereo not shown) [NBD-698]
- koff of fluorescent tracer [3]: 0.166 ± 0.004 s⁻¹
- pKd of fluorescent tracer [3]: 6.22 ± 0.01
- koff of fluorescent tracer (human CB2R (SNAP-CB2) [4]): 0.0475 ± 0.00667 s⁻¹
- pKd of fluorescent tracer (human CB2R (SNAP-CB2) [4]): 6.93 ± 0.05

Compound: CCCCCCC(C)(C)c1cc(OC)c(C2C=C(CNC(=O)CCCCCCNc3ccc([N+](=O)[O-])c4nonc34)C3CC2C3(C)C)c(OC)c1 (stereo not shown) [MKA-115]
- time required for equilibrium [3]: > 15 min
- time required for equilibrium (human CB2R (SNAP-CB2) [4]): > 15 min

Compound: CCCCCc1cc(O)c2c(c1)OC(C)(C)[C@@H]1CC=C(CNC(=O)CCCCCCNc3ccc([N+](=O)[O-])c4nonc34)C[C@@H]21 [MKA-136]
- time required for equilibrium [3]: > 15 min
- koff of fluorescent tracer (human CB2R (SNAP-CB2) [4]): 0.0035 ± 0.0012 s⁻¹
- pKd of fluorescent tracer (human CB2R (SNAP-CB2) [4]): 6.71 ± 0.41
- time required for equilibrium (human CB2R (SNAP-CB2) [4]): > 15 min

Compound: CCCCCCC(C)(C)c1cc(O)c2c(c1)OC(C)(C)[C@@H]1CC=C(CO)C[C@@H]21 [HU-210]
- pK i [5]: 7.99 ± 0.01
- pK d (kinetic) [1]: 8.65 ± 0.01
- pKd (kinetic) [1]: 8.64 ± 0.02
- Emax (%) (full length CB1R WT): 98.2 ± 6.8%
- pEC50 (full length CB1R WT): 8.97 ± 0.08
- Emax (%) (truncated CB1R91-472): 104.1 ± 4.7%
- pEC50 (truncated CB1R91-472): 9.15 ± 0.09

Compound: CCCCCc1cc(O)c2c(c1)OC(C)(C)[C@@H]1CC=C(CNC(=O)CCCCC[n+]3cc(S(=O)(=O)[O-])ccc3/C=C/c3cc4ccc(N(CC)CC)cc4oc3=O)C[C@@H]21 [MKA-138]
- koff of fluorescent tracer [3]: 0.15 ± 0.03 s⁻¹
- pKd of fluorescent tracer [3]: 6.31 ± 0.05
- koff of fluorescent tracer (human CB2R (SNAP-CB2) [4]): 0.0153 ± 0.0015 s⁻¹
- pKd of fluorescent tracer (human CB2R (SNAP-CB2) [4]): 6.97 ± 0.08

Compound: CCOC(=O)C(CC)(CCCSCCOCCOCCNc1ccc([N+](=O)[O-])c2nonc12)NC(=O)c1ccc(C2CC2)c(Cc2ccc(F)cc2)n1 (stereo not shown) [NBD-691]
- pKd of fluorescent tracer [3]: 6.04 ± 0.01
- koff of fluorescent tracer (human CB2R (SNAP-CB2) [4]): 0.0208 ± 0.001 s⁻¹
- pKd of fluorescent tracer (human CB2R (SNAP-CB2) [4]): 7.20 ± 0.01

Compound: CCCCCCC(C)(C)c1cc(OC)c([C@@H]2C=C(CO)[C@@H]3C[C@H]2C3(C)C)c(OC)c1 [HU-308]
- Ki [5]: 3.89 µM
- Kd ([1]; pK d (kinetic)): 4.47 µM
- Kd ([1]; pKd (kinetic)): 4.27 µM

Compound: CCOC(=O)C(CC)(CCCSCCOCCOCCOCCNc1ccc([N+](=O)[O-])c2nonc12)NC(=O)c1ccc(C2CC2)c(Cc2ccc(F)cc2)n1 (stereo not shown) [NBD-694]
- pKd of fluorescent tracer [3]: 6.02 ± 0.01
- koff of fluorescent tracer (human CB2R (SNAP-CB2) [4]): 0.039 ± 0.00367 s⁻¹
- pKd of fluorescent tracer (human CB2R (SNAP-CB2) [4]): 6.97 ± 0.01

Compound: CCCCC/C=C\C/C=C\C/C=C\C/C=C\CCCC(=O)OC(CO)CO [2-AG]
- pK i (human CB2R (SNAP-CB2) [6]): 5.81 ± 0.03
- pKd (kinetic) (human CB2R (SNAP-CB2) [2]; 25°C): 6.36 ± 0.06
- pK d (kinetic) (human CB2R (SNAP-CB2) [2]; 37°C): 5.92 ± 0.04

Compound: CCOC(=O)C(CC)(CCCSCCOCCNc1ccc([N+](=O)[O-])c2nonc12)NC(=O)c1ccc(C2CC2)c(Cc2ccc(F)cc2)n1 (stereo not shown) [NBD-690]
- koff of fluorescent tracer [3]: 0.128 ± 0.00733 s⁻¹
- pKd of fluorescent tracer [3]: 6.13 ± 0.09
- koff of fluorescent tracer (human CB2R (SNAP-CB2) [4]): 0.0162 ± 0.00083 s⁻¹
- pKd of fluorescent tracer (human CB2R (SNAP-CB2) [4]): 7.15 ± 0.02
